Data taken from patent US20190330140A1, “Compound for Use in Enzymatic Reaction and Mass Spectrometry Method” (HITACHI HIGH-TECHNOLOGIES CORPORATION, priority 2016, published 2019).

Test system: galactosidase
Experiment: enzymatic reaction with galactosidase, product measured
Format: biochemical
Conditions: 0.5 ng/ml galactosidase, 1 hour
Procedure: When a solution of 20 ng/ml of HVG and 0.5 ng/ml of galactosidase in a 10 mmol/L phosphate buffer (pH 7.3) containing 5% (v/v) of methanol and 1 mmol of magnesium chloride was prepared and was reacted at 37° C. for 1 hour, 0.532 ng/ml of HV was then produced. […] It was found from this example that HVG has the same level of enzymatic susceptibility as p-nitrophenylgalactoside which is known as a good substrate for galactosidases.

SMILES | HV produced from substrate (20 ng/ml HVG, 10 mmol/L phosphate buffer pH 7.3, 5% methanol, MgCl2, 37° C.) [ng/mL] | p-nitrophenol produced from substrate (substrate in place of HVG, phosphate buffer pH 7.3, 37° C.) [ng/mL]
COc1ccc(CCN(C)CCCC(C(=O)Nc2ccc(O[C@@H]3OC(CO)[C@H](O)[C@@H](O)C3O)cc2)(c2ccc(OC)c(OC)c2)C(C)C)cc1OC (some centres unmarked) [HVG] | 0.532 | 
O=[N+]([O-])c1ccc(O[C@@H]2O[C@H](CO)[C@H](O)[C@H](O)[C@H]2O)cc1 [p-Nitrophenyl galactoside] |  | 0.532
